Laboratory results reported in the supplement of paper PMC11061612.

Tests used:
Assay in all cases: combination Emax (second highest fraction inhibited in the dose matrix, 72 h); higher = more inhibition; extreme values may be limits of the assay
[1] = system: DiFi (Colorectal Carcinoma)
Procedure, shortened: (§1)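 Cell lines grown in DMEM/F12 or RPMI with 10% FBS were plated in 1536-well plates and held 24 hours at 37°C, 5% CO2 before 72 hours of exposure to two-drug dose matrices, with DMSO typically at 0.2%. CellTiter-Glo 2.0 luminescence gave viability, which was converted to inhibition. Vehicle wells were set to 0 and blank wells to 1. Combination Emax is the second-highest inhibition in the matrix, and Bliss excess is the observed combination effect minus the expected EA + EB − EA·EB, where EA and EB are the single-agent effects.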

[2] = system: CAMA-1 (Breast Carcinoma)
Procedure, shortened: as §1

U251 (Low Grade Glioma) = system: U251 (Low Grade Glioma)
Procedure, shortened: as §1

[3] = system: EVSA-T (Breast Carcinoma)
Procedure, shortened: as §1

[4] = system: MFM-223 (Breast Carcinoma)
Procedure, shortened: as §1

[5] = system: SW837 (Colorectal Carcinoma)
Procedure, shortened: as §1

[6] = system: NCI-H847 (Small Cell Lung Carcinoma)
Procedure, shortened: as §1

WM-115 (Melanoma) = system: WM-115 (Melanoma)
Procedure, shortened: as §1

[7] = system: COLO-678 (Colorectal Carcinoma)
Procedure, shortened: as §1

TC-71 (Ewing's Sarcoma) = system: TC-71 (Ewing's Sarcoma)
Procedure, shortened: as §1

[8] = system: K-562 (Chronic Myelogenous Leukemia)
Procedure, shortened: as §1

[9] = system: TOV-112D (Ovarian Carcinoma)
Procedure, shortened: as §1

[10] = system: DND-41 (T-Lymphoblastic Leukemia)
Procedure, shortened: as §1

ES1 (Ewing's Sarcoma) = system: ES1 (Ewing's Sarcoma)
Procedure, shortened: as §1

[11] = system: NCI-H1792 (Lung Adenocarcinoma)
Procedure, shortened: as §1

[12] = system: MOLT-16 (T-Lymphoblastic Leukemia)
Procedure, shortened: as §1

[13] = system: TE-6 (Esophageal Squamous Cell Carcinoma)
Procedure, shortened: as §1

WIL2-NS (Non-Cancerous) = system: WIL2-NS (Non-Cancerous)
Procedure, shortened: as §1

[14] = system: MKN28 (Gastric Carcinoma)
Procedure, shortened: as §1

SMILES	combination Emax [1]	combination Emax [2]	combination Emax (U251 (Low Grade Glioma))	combination Emax [3]	combination Emax [4]	combination Emax [5]	combination Emax [6]	combination Emax (WM-115 (Melanoma))	combination Emax [7]	combination Emax (TC-71 (Ewing's Sarcoma))	combination Emax [8]	combination Emax [9]	combination Emax [10]	combination Emax (ES1 (Ewing's Sarcoma))	combination Emax [11]	combination Emax [12]	combination Emax [13]	combination Emax (WIL2-NS (Non-Cancerous))	combination Emax [14]
COc1cccc(OCCCN)c1-c1cc(Nc2cnc(C#N)cn2)n[nH]1 [Prexasertib] + C=CCn1c(=O)c2cnc(Nc3ccc(N4CCN(C)CC4)cc3)nc2n1-c1cccc(C(C)(C)O)n1 [AZD1775] (first compound max 1 µM, partner max 1 µM)	0.92	0.545	0.783	0.532	0.897	0.79	1	0.614	0.307	1	0.98	0.815	0.88	1	0.915	1	0.767	1	0.725
C=CCn1c(=O)c2cnc(Nc3ccc(N4CCN(C)CC4)cc3)nc2n1-c1cccc(C(C)(C)O)n1 [AZD1775] + C[C@@H]1COCCN1C2=NC(=NC(=C2)C3(CC3)[S@](=N)(=O)C)C4=C5C=CNC5=NC=C4 [AZD6738] (first compound max 1 µM, partner max 10 µM)	0.895	0.46	0.773	0.483	0.897	0.636	1	0.595	0.199	0.941	0.934	0.764	0.929	0.948	0.866	1	0.669	1	0.695
Cc1cc2ncnn2cc1Nc1ncc2c(n1)n(C1CCOCC1)c(=O)n2C [AZD7648] + CN(C)CCCOc1ccc(-c2ccc3ncc4c(c3c2)n(C2CCOCC2)c(=O)n4C)cn1 [AZD0156] (first compound max 10 µM, 7x7, partner max 1 µM)	0.273	0.261	0.196	0.28	0.238	0.154	0.663	0.328	0.0911	0.246	0.2	0.38	0.242	0.478	0.469	0.511	0.363	0.395	0.287
COc1cccc(OCCCN)c1-c1cc(Nc2cnc(C#N)cn2)n[nH]1 [Prexasertib] + O=C(c1cc(Cc2n[nH]c(=O)c3ccccc23)ccc1F)N1CCN(C(=O)C2CC2)CC1 [Olaparib] (first compound max 1 µM, 7x7, partner max 10 µM)	0.924	0.37	0.733	0.433	0.703	0.645	1	0.556	0.169	0.987	0.891	0.796	0.85	1	0.84	1	0.476	1	0.46
COc1cccc(OCCCN)c1-c1cc(Nc2cnc(C#N)cn2)n[nH]1 [Prexasertib] + CN(C)CCCOc1ccc(-c2ccc3ncc4c(c3c2)n(C2CCOCC2)c(=O)n4C)cn1 [AZD0156] (first compound max 1 µM, 7x7, partner max 1 µM)	0.878	0.327	0.613	0.252	0.74	0.803	1	0.566	0.0457	0.977	0.979	0.614	0.811	1	0.825	1	0.567	1	0.597
COc1cccc(OCCCN)c1-c1cc(Nc2cnc(C#N)cn2)n[nH]1 [Prexasertib] + C[C@@H]1COCCN1C2=NC(=NC(=C2)C3(CC3)[S@](=N)(=O)C)C4=C5C=CNC5=NC=C4 [AZD6738] (first compound max 1 µM, 7x7, partner max 10 µM)	0.881	0.417	0.652	0.343	0.814	0.752	1	0.59	0.136	0.962	0.985	0.796	0.891	1	0.832	1	0.695	1	0.597
CCN(CCO)CCCOc1ccc2c(Nc3cc(CC(=O)Nc4cccc(F)c4)[nH]n3)ncnc2c1 [AZD2811] + C[C@@H]1COCCN1C2=NC(=NC(=C2)C3(CC3)[S@](=N)(=O)C)C4=C5C=CNC5=NC=C4 [AZD6738] (first compound max 1 µM, 7x7, partner max 10 µM)	0.819	0.304	0.533	0.289	0.8	0.361	1	0.523	0.165	0.94	0.881	0.707	0.908	0.948	0.655	1	0.543	0.979	0.519
CN(C)CCCOc1ccc(-c2ccc3ncc4c(c3c2)n(C2CCOCC2)c(=O)n4C)cn1 [AZD0156] + CCN(CCO)CCCOc1ccc2c(Nc3cc(CC(=O)Nc4cccc(F)c4)[nH]n3)ncnc2c1 [AZD2811] (first compound max 1 µM, 7x7, partner max 1 µM)	0.416	0.14	0.179	0.269	0.168	0.0741	0.949	0.183	0.144	0.837	0.23	0.35	0.206	0.69	0.147	1	0.236	0.201	0.135
CCc1c2c(nc3ccc(O)cc13)-c1cc3c(c(=O)n1C2)COC(=O)[C@]3(O)CC [SN-38] + CN(C)CCCOc1ccc(-c2ccc3ncc4c(c3c2)n(C2CCOCC2)c(=O)n4C)cn1 [AZD0156] (first compound max 0.3 µM, 7x7, partner max 1 µM)	0.669	0.208	0.897	0.421	0.243	0.343	0.976	0.43	0.268	1	0.752	0.965	0.934	1	0.757	1	0.313	1	0.451
CCN(CCO)CCCOc1ccc2c(Nc3cc(CC(=O)Nc4cccc(F)c4)[nH]n3)ncnc2c1 [AZD2811] + O=C(c1cc(Cc2n[nH]c(=O)c3ccccc23)ccc1F)N1CCN(C(=O)C2CC2)CC1 [Olaparib] (first compound max 1 µM, 7x7, partner max 10 µM)	0.516	0.206	0.273	0.31	0.274	0.183	0.956	0.259	0.153	0.755	0.366	0.394	0.369	0.855	0.175	1	0.212	0.397	0.238
CN(C)CCCOc1ccc(-c2ccc3ncc4c(c3c2)n(C2CCOCC2)c(=O)n4C)cn1 [AZD0156] + C[C@@H]1COCCN1C2=NC(=NC(=C2)C3(CC3)[S@](=N)(=O)C)C4=C5C=CNC5=NC=C4 [AZD6738] (first compound max 1 µM, 7x7, partner max 10 µM)	0.829	0.273	0.584	0.495	0.828	0.466	0.956	0.488	0.123	0.952	0.9	0.717	0.844	0.956	0.707	1	0.636	0.988	0.471
COc1cccc2c1C(=O)c1c(O)c3c(c(O)c1C2=O)C[C@@](O)(C(=O)CO)C[C@@H]3O[C@H]1C[C@H](N)[C@H](O)[C@H](C)O1 [Doxorubicin] + Cc1cc2ncnn2cc1Nc1ncc2c(n1)n(C1CCOCC1)c(=O)n2C [AZD7648] (first compound max 1 µM, 7x7, partner max 10 µM)	0.701	0.469	0.859	0.787	0.671	0.516	0.961	0.678	0.715	0.965	0.823	0.926	0.889	1	0.923	1	0.322	1	0.503
Cc1cc2ncnn2cc1Nc1ncc2c(n1)n(C1CCOCC1)c(=O)n2C [AZD7648] + C=CCn1c(=O)c2cnc(Nc3ccc(N4CCN(C)CC4)cc3)nc2n1-c1cccc(C(C)(C)O)n1 [AZD1775] (first compound max 10 µM, partner max 1 µM)	0.821	0.303	0.319	0.291	0.69	0.292	1	0.469	0.27	0.496	0.645	0.468	0.813	0.639	0.715	1	0.363	0.954	0.668
CCc1c2c(nc3ccc(O)cc13)-c1cc3c(c(=O)n1C2)COC(=O)[C@]3(O)CC [SN-38] + O=C(c1cc(Cc2n[nH]c(=O)c3ccccc23)ccc1F)N1CCN(C(=O)C2CC2)CC1 [Olaparib] (first compound max 0.3 µM, 7x7, partner max 10 µM)	0.701	0.299	–	0.784	0.257	0.506	1	0.391	0.396	–	0.672	0.965	0.947	1	0.575	–	–	1	0.553
